Data set [1] deals with S. aureus ATCC 29213. In words: Minimum inhibitory concentration (MIC) assay, MSSA. To be noted: Staphylococcus aureus, broth microdilution. The class given is cell-based. On the procedure:
(§1) The preparation of compounds listed in Table I can be carried out under conditions analogous to those described in the examples above. Those of skill in the art will recognize routine changes in reaction conditions and starting materials needed to produce the listed compounds. For example, compound 5 in Table I, is prepared by the method shown above, except tert-butyl (1-(pyrrolidin-3-yl)ethyl)carbamate, prepared by the method shown in Schoeder, et al., J. Heterocyclic Chem., 29: 1481-1498 (1992), is used as the amine starting material. Compound activity was evaluated in a standard minimal inhibitory concentration assay such as the assay provided in Example 4. Compound cytotoxicity is determined using a standard assay of cytotoxicity such as the assay provided in Example 5. Compounds 10, 14, and 20 of Table I are provided as comparative examples.
(§2) The antimicrobial activity of the compounds of the invention may be evaluated by a number of methods, including the following visual minimum inhibitory concentration (MIC) assay. This assay determines the minimum concentration of compound required to inhibit growth of a bacterial strain.
(§3) Whole-cell antibacterial activity is determined by broth microdilution using conditions recommended by the NCCLS (see National Committee for Clinical Laboratory Standards. 2001. Performance standards for antimicrobial susceptibility testing: 11th informational supplement. Vol. 21, no. 1, M100-S11. National Committee for Clinical Laboratory Standards, Wayne, Pa.). Test compounds are dissolved in DMSO and diluted 1:50 in Mueller-Hinton II broth (Becton-Dickinson) to produce a 256 μg/ml stock solution. In a 96-well microtiter plate, the compound solution is serially two-fold diluted in Mueller-Hinton II broth. After the compounds are diluted, a 50 μl aliquot of the test organism (˜1×10^6 cfu/mL) is added to each well of the microtiter plate. The final test concentrations range from 0.125-128 μg/mL. Inoculated plates are incubated in ambient air at 37° C. for 18 to 24 hours. The organisms selected for testing included laboratory strains S. aureus ATCC 29213 and E. coli ATCC 25922 (strains purchased from American Type Culture Collection, Manassas, Va.) m, S. aureus FQR700699, and Paeruginosa 27853. The minimum inhibitory concentration (MIC) is determined as the lowest concentration of compound that inhibited visible growth of the test organism.

The subject of data set [2] is fluoroquinolone-resistant S. aureus ATCC 700699. In words: Minimum inhibitory concentration (MIC) assay, MRSA. To be noted: Staphylococcus aureus, broth microdilution. In kind it is cell-based. On the procedure:
as §1, §2, §3

For data set [3], the system named is Hep2. In words: Cytotoxicity, cell viability staining with Alamar Blue. The class given is cell-based, human. The arrangement: unit not given here. The following applies: Hep2 cells. On the procedure:
as §1
To determine whether the microcidal effect observed against S. aureus and E. coli is specific to bacterial cells, compounds are screened for cell viability effects on several human cell types.
Optimal cell density is first determined by plating cells in a 96-well plate standard sterile tissue culture plates in 100 μl media, 10% FBS at six cell densities from 500 cells/well to 15,000 cells/well. A cell free well containing only media is used as a control. Cells are incubated at 37° C. in a 5% CO2 incubator for 24 hours. 10% culture volume (10 ul) of Alamar Blue (Biosource, DAL1100, 100 mL) is then added. Cells are incubated at 37° C. in a 5% CO2 incubator and read in a Victor V plate reader, 544 nm excitation, 590 nm emission, at 3, 4, and 24 hours after the addition of Alamar Blue. The cell number vs. change in fluorescence is plotted to determine linearity of signal vs. cell number. The optimal density varies between 500-15,000 cells/well depending on the specific cell type. The optimal density is selected based on the highest number of cells that is still in the linear response range.
Cells are plated at optimal cell density in a standard sterile tissue culture 96 well plate, and incubated at 37° C., O/N in a 5% CO2 incubator. 12 to 48 hours post-plating media is removed. The cells are washed 1 or 2 times with 1×PBS and replaced with fresh media containing the test compound in 1% DMSO. 24 to 72 hours after addition of compound, the media is removed, and the cells washed 1 to 2 times with 1×PBS. Fresh media containing 1/10 volume of Alamar Blue is then added. Plates are incubated 4 hours at 37° C. in a 5% CO2 incubator and read in a Victor V plate reader, 544 nm excitation, 590 nm emission.
Compounds are diluted to 20 micromolar in 1% DMSO and media and screened in duplicate to obtain single concentration cytotoxicity data. Eight concentration points from 0.78 micromolar to 100 micromolar, run in duplicate, are used to determine cytotoxicity CC50 values. Cells with 1% DMSO and media are used as a negative control, compounds having a known CC50 against a particular cell type are used as positive controls.
The change in fluorescence vs. concentration of test compound is plotted to determine the cytotoxicity of the compound.

Converted amounts (≈) assume the structure as drawn.

`COc1c(N2CCCC(CN)C2)c(F)cc2c(=O)c3c(O)c(C(N)=O)sc3n(C3CC3)c12` (stereo not drawn) [Compound 5, 7-(3-(aminomethyl)piperidin-1-yl)-9-cyclopropyl-6-fluoro-3-hydroxy-8-methoxy-4-oxo-4,9-dihydrothieno[2,3-b]quinoline-2-carboxamide]: the minimum inhibitory concentration (MIC) in data set [1] is 0.5 µg/mL (≈ 1.09 µM); in data set [2] it was 2 µg/mL (≈ 4.34 µM). The “Cytotoxicity Hep2” value in data set [3] was found to be 30.

As to `COc1c(N2CCCC(=C(F)CN)C2)c(F)cc2c(=O)c3c(O)c(C(C)=O)sc3n(C3CC3)c12` [Compound 6, 2-acetyl-7-(3-(2-amino-1-fluoroethylidene)piperidin-1-yl)-9-cyclopropyl-6-fluoro-3-hydroxy-8-methoxythieno [2,3-b]quinolin-4(9H)-one], the MIC in data set [1] was 0.25 µg/mL (≈ 0.511 µM); in data set [2] it was 0.5 µg/mL (≈ 1.02 µM).

As for `COc1c(N2CC[C@H](N)C2)c(F)cc2c(=O)c3c(O)c(C(C)=O)sc3n(C3CC3)c12` [Compound 7, (S)-2-acetyl-7-(3-aminopyrrolidin-1-yl)-9-cyclopropyl-6-fluoro-3-hydroxy-8-methoxythieno [2,3-b]quinolin-4(9H)-one], the values for the MIC in data set [1] and in data set [2] were 0.13 µg/mL (≈ 0.301 µM) and 0.25 µg/mL (≈ 0.579 µM), respectively. Also, in data set [3], the “Cytotoxicity Hep2” value is recorded as 35.

With `COc1c(N2CC[C@@H]([C@H](C)N)C2)c(F)cc2c(=O)c3c(O)c(C(C)=O)sc3n(C3CC3)c12` [Compound 8, 2-acetyl-7-((R)-3-((S)-1-aminoethyl)pyrrolidin-1-yl)-9-cyclopropyl-6-fluoro-3-hydroxy-8-methoxythieno [2,3-b]quinolin-4(9H)-one], the MIC in data set [1] is 0.03 µg/mL (≈ 0.0653 µM); in data set [2], 0.13 µg/mL (≈ 0.283 µM). Moreover, the “Cytotoxicity Hep2” value in data set [3] stood at 9.

`COc1c(N2CCC(CN)CC2)c(F)cc2c(=O)c3c(O)c(C(C)=O)sc3n(C3CC3)c12` [Compound 9, 2-acetyl-7-(4-(aminomethyl)piperidin-1-yl)-9-cyclopropyl-6-fluoro-3-hydroxy-8-methoxythieno[2,3-b] quinolin-4(9H)-one]: the values for the minimum inhibitory concentration (MIC) in data set [1] and in data set [2] were 0.25 µg/mL (≈ 0.544 µM) and 1 µg/mL (≈ 2.18 µM), respectively. Further, the “Cytotoxicity Hep2” value in data set [3] is 42.

In data set [1], `COc1c(N2CC[C@@H](CN)C2)c(F)cc2c(=O)c3c(O)csc3n(C3CC3)c12` [Compound 10, (S)-7-(3-(aminomethyl)pyrrolidin-1-yl)-9-cyclopropyl-6-fluoro-3-hydroxy-8-methoxythieno[2,3-b] quinolin-4(9H)-one] gave a minimal inhibitory concentration (MIC) of 4 µg/mL (≈ 9.91 µM). In addition, the “Cytotoxicity Hep2” value in data set [3] came out at 24.

For the compound `COc1c(N2CC[C@H](CN)C2)c(F)cc2c(=O)c3c(O)c(C(C)=O)sc3n(C3CC3)c12` [Compound 13, (R)-2-acetyl-7-(3-(aminomethyl)pyrrolidin-1-yl)-9-cyclopropyl-6-fluoro-3-hydroxy-8-methoxythieno[2,3-b] quinolin-4(9H)-one], the MIC in data set [1] came out at 0.13 µg/mL (≈ 0.292 µM); in data set [2], 0.25 µg/mL (≈ 0.561 µM).

As to `COc1c(N2CC[C@@H](CNC(C)=O)C2)c(F)cc2c(=O)c3c(n(C4CC4)c12)SCC3=O` [Compound 14, (S)-N-((1-(9-cyclopropyl-6-fluoro-8-methoxy-3,4-dioxo-2,3,4,9-tetrahydrothieno [2,3-b]quinolin-7-yl)pyrrolidin-3-yl)methyl) acetamide], the MIC in data set [1] is 32 µg/mL (≈ 71.8 µM); in data set [2] it was above 64 µg/mL.

Consider `COc1c(N2CC[C@@H](CNC(=O)CN)C2)c(F)cc2c(=O)c3c(O)c(C(C)=O)sc3n(C3CC3)c12` [Compound 15, (S)-N-((1-(2-acetyl-9-cyclopropyl-6-fluoro-3-hydroxy-8-methoxy-4-oxo-4,9-dihydrothieno [2,3-b]quinolin-7-yl)pyrrolidin-3-yl)methyl)-2-aminoacetamide], for which the figures for the MIC in data set [1] and in data set [2] were 0.5 µg/mL (≈ 0.995 µM) and 1 µg/mL (≈ 1.99 µM), respectively.

As for `COc1c(N2CC[C@@H](CNS(=O)(=O)c3cc(F)ccc3C)C2)c(F)cc2c(=O)c3c(O)c(C(C)=O)sc3n(C3CC3)c12` [Compound 16, (R)-N-((1-(2-acetyl-9-cyclopropyl-6-fluoro-3-hydroxy-8-methoxy-4-oxo-4,9-dihydrothieno [2,3-b]quinolin-7-yl)pyrrolidin-3-yl)methyl)-5-fluoro-2-methylbenzenesulfonamide], the figures for the MIC in data set [1] and in data set [2] were 32 µg/mL (≈ 51.8 µM) and above 64 µg/mL, respectively.

Take `COc1c(N2CC[C@@H](CNS(=O)(=O)c3cc(F)ccc3C)C2)c(F)cc2c(=O)c3c(OS(=O)(=O)c4cc(F)ccc4C)c(C(C)=O)sc3n(C3CC3)c12` [Compound 17, (R)-2-acetyl--cyclopropyl-6-fluoro-7-(3-((5-fluoro-2-methylphenylsulfonamido)methyl)pyrrolidin-1-yl)-8-methoxy-4-oxo-4,9-dihydrothieno[2,3-b] quinolin-3-yl 5-fluoro-2-methylbenzenesulfonate]: the MIC in data set [1] and in data set [2] was above 64 µg/mL in each case.

As to `COc1c(N2CC[C@H](NC(C)=O)C2)c(F)cc2c(=O)c3c(O)c(C(C)=O)sc3n(C3CC3)c12` [Compound 18, (S)-N-(1-(2-acetyl-9-cyclopropyl-6-fluoro-3-hydroxy-8-methoxy-4-oxo-4,9-dihydrothieno [2,3-b]quinolin-7-yl)pyrrolidin-3-yl)acetamide], the MIC was determined as 0.25 µg/mL (≈ 0.528 µM) in data set [1] and 1 µg/mL (≈ 2.11 µM) in data set [2].

In the case of `COc1c(N2CC[C@@H]([C@H](C)NC(C)=O)C2)c(F)cc2c(=O)c3c(O)c(C(C)=O)sc3n(C3CC3)c12` [Compound 19, N-((S)-1-((R)-1-(2-acetyl-9-cyclopropyl-6-fluoro-3-hydroxy-8-methoxy-4-oxo-4,9-dihydrothieno[2,3-b]quinolin-7-yl)pyrrolidin-3-yl)ethyl) acetamide], the MIC in data set [1] was determined as 0.25 µg/mL (≈ 0.498 µM); in data set [2] it was 0.5 µg/mL (≈ 0.997 µM).

As for `COc1c(N2CC[C@@H]([C@H](C)N)C2)c(F)cc2c(=O)c3c(n(C4CC4)c12)SCC3=O` [Compound 20, 7-((R)-3-((S)-1-aminoethyl)pyrrolidin-1-yl)-9-cyclopropyl-6-fluoro-8-methoxythieno[2,3-b] quinoline-3,4(2H,9H)-dione], the MIC worked out at 4 µg/mL (≈ 9.58 µM) in data set [1] and 16 µg/mL (≈ 38.3 µM) in data set [2].

With `COc1c(N2CC[C@@H]([C@@H](C)N)C2)c(F)cc2c(=O)c3c(O)c(C(C)=O)sc3n(C3CC3)c12` [Compound 21, 2-acetyl-7-((R)-3-((R)-1-aminoethyl)pyrrolidin-1-yl)-9-cyclopropyl-6-fluoro-3-hydroxy-8-methoxythieno[2,3-b] quinolin-4(9H)-one], the MIC is 0.13 µg/mL (≈ 0.283 µM) in data set [1] and 1 µg/mL (≈ 2.18 µM) in data set [2].

`COc1c(N2CC[C@@H]([C@H](C)NC(=O)OC(C)(C)C)C2)c(F)cc2c(=O)c3c(O)c(C(C)=O)sc3n(C3CC3)c12` [Compound 22, tert-butyl ((S)-1-((R)-1-(2-acetyl-9-cyclopropyl-6-fluoro-3-hydroxy-8-methoxy-4-oxo-4,9-dihydrothieno[2,3-b]quinolin-7-yl)pyrrolidin-3-yl)ethyl)carbamate]: the MIC in data set [1] and in data set [2] was above 64 µg/mL each time.

(Values after patent US20130165471A1, “2-SUBSTITUTED-THIENOQUINOLONES AND RELATED COMPOUNDS AS ANTI-INFECTIVE AGENTS” (Achillion Pharmaceuticals Inc., priority 2011, published 2013).)
